These results are taken from the NIST ThermoML archive (doi:10.1021/je4000845).

± gives the expanded uncertainty stated by the source.

The conditions of the data set: Crystal; visual observation.

`Nc1cccc(C(=O)O)c1` [3-aminobenzoic acid]: the Normal melting temperature was 174.1 ± 1 °C.
